Molecules are shown by their SMILES. Several values for one entry are separate records, joined by “and”; a condition that tells them apart may be missing. Equal values may be shown once.

This is an account of results in US9901591B2, “Paeoniflorin preparations and uses thereof for fat reduction” (priority 2008, dated 2018).

Experiment [1] has as its system Hormone sensitive lipase (HSL). The experiment can be described thus: Semi-quantitative RT-PCR of HSL expression in 3T3-L1 adipocytes. The class given is cell-based, mouse. The settings on record: 1 mol/L PF, from the third day after exposure. The protocol: 3T3-L1 adipocytes were cultured in medium containing […] PF as a test group and medium only as the control group. Total RNA was extracted and reverse transcribed to cDNA employing conventional methods known to those of skill in the art. Primers used for polymerase chain reaction (PCR) amplification of mouse HSL primers were selected based on published sequence (NM_010719) (expected PCR fragment: 409 bp): For semi-quantitative analysis, the amplification cycles were chosen within the linear range (HSL: 24 cycles with […] at 58° C., GAPDH: 21 cycles with […] at 58° C.).

The test system of another experiment is 3T3-L1 adipocytes. In words: Glycerol release from differentiated 3T3-L1 adipocytes (adipolysis). In kind it is cell-based, mouse. The settings on record: 1 umol/L PF vs media without PF, 7th day. From the text:
The 3T3-L1 cell line is an accepted model by those of skill in the art for natural fat loss. This cell line is a substrain of Swiss 3T3 mouse cell line 3T3-L1. This cell line propagated under normal conditions has a fibroblastic phenotype. However, when treated with a combination of dexamethasone, isobutylmethylxanthine (a non-specific inhibitor of phosphodiesterases) (IBMX) and insulin, 3T3 cells adopt a rounded phenotype and accumulate lipids intracellularly in the form of fat droplets. Differentiated 3T3-L1 adipocytes were cultured in media containing 1 umol/L PF as test group, and media without PF as control. As a result of lipolysis activity, glycerol will be generated as a result of triglyceride breakdown and released into the extracellular space. Glycerol content from 3T3-L1 adipocyte cell culture media may therefore provide an indicator of adipolysis.

Experiment [2] can be described thus: Targeted fat reduction with injectable PF preparation in patients. The class given is in vivo, human. As for the experimental part: 1 ml of PF (1) at a concentration of 1 mol is mixed with 4 ml injectable water and 5 ml (phosphatidyl choline (PPC)) prepared from soya bean extract and 5 ml 2% lidocaine. A total of 15 ml solution. This solution is mixed together in a 20 ml syringe and the needle is changed to a small insulin needle Gauge 30×½ as shown therein before the actual injections are given. The solution is then given subcutaneously directly into the fat areas at a dose of 0.5 ml per site totaling 20 injections. These injections are spread out to cover a big surface area, e.g. could be spread out through a whole midsection (“love handle”) in case of a larger patient, or if the patient were an average size it could be spread out to cover right and left love handles in one session. For reference, please refer to the patients injected in the thigh and buttocks area, for explanation. This patient was injected with 30 smaller injections of 0.2 ml per site, and they were spread through out the whole outer and inner thigh and buttocks areas on the right side. 0.5 mg of PF was dissolved in 5 ml of injectable water rendering a concentration of 0.1 mg/ml. This was then mixed with 5 ml of Phosphatidyl Choline in a 20 ml syringe. The large gauge needle was then replaced with a smaller gauge (Gauge 27-30, in some embodiments, a 30 gauge×½) insulin needle and the 10 ml was injected into 20 different sites of a given area. 0.5 ml of the solution was injected into the stomach, with about 1 cm separating each injection site.

Experiment [3] can be described thus: Blood indices before and after PF treatment in patients. In kind it is in vivo, human. As for the experimental part:
Eight patients were treated with PF. The levels of three indices such as serum cholesterol, LDL Cholesterol, serum triglycerides in blood were tested before and after treatment.

For `C[C@@]12C[C@@]3(O)O[C@@H](O1)[C@]1(COC(=O)c4ccccc4)[C@H]3C[C@@]12O[C@@H]1O[C@H](CO)[C@@H](O)[C@H](O)[C@H]1O` [PF, paeoniflorin], the “expression of HSL” value in experiment [1] is recorded as “increased the expression of HSL”. Besides, the release of glycerol result in the experiment on 3T3-L1 adipocytes is recorded as “increased the release of glycerol significantly”. Also, the weight loss entry in experiment [2] (2 sessions together with an aerobic instructor, in 2 weeks) is listed as “over 3 pounds”. Also, the “Size at End of Treatment, stomach area” value in experiment [2] (Patient 1, 6 weeks/11 sessions, size before start 90 cm) is 83 cm. Moreover, the “Size at End of Tx, stomach area” value in experiment [2] (Patient 2, 5 weeks/9 sessions, size before start 96 cm) is reported as 90 cm. The “Size at End, both upper arms” value in experiment [2] (Patient 3, 1 month/8 sessions (4 per side), size before start 40 cm) worked out at 36.5 cm. The fat loss entry in experiment [2] (each 10 sessions) is “about 7 cm”; in experiment [2] (in 5 sessions of 20 injections of 0.5 ml), 3 cm; in experiment [2] (one patient, 10 sessions over about 6 weeks) it was “more than 5 inches”. Also, in experiment [2] (on average, sessions of 20 injections), the “sessions until a noticeable difference was seen” value is reported as 4-5 sessions. Moreover, in experiment [2] (stomach and thigh areas, human), the “sessions per 1 cm of fat dissolved” value is on record as 1-1.5 sessions. In addition, the “fat dissolved per session” value in experiment [2] (upper arms areas, human) is reported as “about 1 cm”. The fat lost result in experiment [2] (with 10 sessions) is given as “over 5 pounds”. In experiment [3] (average of eight patients, Pre-tx Ave 79.38, P 0.462, NR: 35-160), the “Serum Triglycerides Post-tx, Ave” value came out at 72.50 mg/dL. Besides, the “LDL Cholesterol Post-tx, Ave” value in experiment [3] (average of eight patients, Pre-tx Ave 122.81, P 0.452, NR: 60-150) amounted to 112.69 mg/dL. The “Serum Cholesterol Post-tx, Ave” value in experiment [3] (average of eight patients, Pre-tx Ave 202.88, P 0.002, NR: 50-200) stood at 172.75 mg/dL. Further, the “Serum cholesterol, LDL Cholesterol, serum triglycerides in blood, change after treatment” value in experiment [3] (eight patients, before vs after treatment) is given as “reduced after PF treatment”. The “Serum Triglycerides Post-tx” value in experiment [3] (individual cases 1-8, after PF treatment, NR: 35-160) is 60 mg/dL and 59 mg/dL and 67 mg/dL and 71 mg/dL and 110 mg/dL and 55 mg/dL and 85 mg/dL and 73 mg/dL. In addition, the “Serum Cholesterol Post-tx” value in experiment [3] (individual cases 1-8, after PF treatment, NR: 50-200) is 135 mg/dL and 151 mg/dL and 222 mg/dL and 168 mg/dL and 237 mg/dL and 150 mg/dL and 148 mg/dL and 171 mg/dL. Moreover, the “LDL Cholesterol Post-tx” value in experiment [3] (individual cases 1-8, after PF treatment, NR: 60-150) is 75 mg/dL and 92 mg/dL and 146 mg/dL and 108 mg/dL and 176.5 mg/dL and 98 mg/dL and 93 mg/dL and 113 mg/dL.
